# What was measured:
# Assay type in all cases: in vivo
# barnyard grass (Ec) = test: Test Example 2: herbicidal effects by upland soil treatment; parameters: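 0-5 growth inhibition grade; 5 = over 90%; 4 = 70-90%; 3 = 50-70%; 2 = 30-50%; 1 = 10-30%; 0 = under 10%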; details: dose 100 g active ingredient per 10 ares, examined on the 21st day after treatment
# Description: In a 80 cm^2 plastic pot, upland soil was filled, and seeds of barnyard grass (Ec) and green foxtail (Se) were sown and covered with soil. A wettable powder prepared in accordance with Formulation Example 1 was diluted with water and uniformly applied to the soil surface by means of a small size spray at a rate of 100 l per 10 ares, so that the dose of the active ingredient would be 100 g per 10 ares. Thereafter, cultivation was carried out in a green house, and on the 21st day after the treatment, the herbicidal effects were examined in accordance with the standards as identified in Table 44.
# monochoria (Mo) [1] = test: Test Example 1: herbicidal effects by flooded paddy field treatment; parameters: herbicidal effects, Mo (monochoria):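 0-5 growth inhibition grade; 5 = over 90%; 4 = 70-90%; 3 = 50-70%; 2 = 30-50%; 1 = 10-30%; 0 = under 10%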; details: dose 100 g active ingredient per 10 ares, examined on the 21st day after treatment, standards of Table 44
# In short: (§1)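 Dose: 100 g active ingredient per 10 ares as a diluted wettable powder dripped onto 3 cm floodwater, one day after sowing in puddled paddy soil. Scored by a standard rating scale 21 days later following greenhouse growth.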
# barnyard grass (Eo) [2] = test: as above; parameters: herbicidal effects, Eo (barnyard grass):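 0-5 growth inhibition grade; 5 = over 90%; 4 = 70-90%; 3 = 50-70%; 2 = 30-50%; 1 = 10-30%; 0 = under 10%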; details: dose 100 g active ingredient per 10 ares, examined on the 21st day after treatment, standards of Table 44
# In short: as §1
# barnyard grass (Eo) [3] = test: Test Example 4: selectivity for a crop plant by flooded paddy field treatment; parameters: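 0-5 growth inhibition grade; 5 = over 90%; 4 = 70-90%; 3 = 50-70%; 2 = 30-50%; 1 = 10-30%; 0 = under 10%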; details: barnyard grass, dose 25 gai/10a, 21st day after treatment, index per Table 44
# Description: (§2) In a 100 cm^2 plastic pot, a paddy field soil was filled and paddled. Then, seeds of barnyard grass (Eo) and monochoria (Mo) were sown, and rice (Or) of second leaf stage was transplanted, and water was introduced to a depth of 3 cm. Next day, a wettable powder prepared in accordance with Formulation Example 1 was diluted with water and dropwise applied to the water surface. The dose was 25 g of the active ingredient per 10 ares. Thereafter, cultivation was carried out in a green house, and on the 21st day after the treatment, the herbicidal effects were examined in accordance with the standards of Table 44.
# monochoria (Mo) [4] = test: as above; parameters: scale not given here; details: monochoria, dose 25 gai/10a, 21st day after treatment, index per Table 44
# Description: as §2
# rice (Or) = test: as above; parameters: scale not given here; details: rice transplanted at second leaf stage, dose 25 gai/10a, 21st day after treatment, index per Table 44
# Description: as §2
SMILES,"Ec (herbicidal effects, index) (barnyard grass (Ec))","herbicidal effects, Mo (monochoria) (monochoria (Mo) [1])","herbicidal effects, Eo (barnyard grass) (barnyard grass (Eo) [2])",Eo (herbicidal effect index) (barnyard grass (Eo) [3]),Mo (herbicidal effect index) (monochoria (Mo) [4]),Or (herbicidal effect index on crop) (rice (Or))
CN(C(=O)Cc1ccc(F)cc1)C(c1cccs1)c1cncnc1C(F)(F)F (racemic) [1-234],5,5,5,5,5,1
CN(C(=O)Cc1ccc(C(F)(F)F)cc1)C(c1ccccc1)c1cncnc1C(F)(F)F (racemic) [1-306],5,5,5,5,5,1
CCN(C(=O)Cc1ccc(Cl)cc1F)C(c1cncnc1C(F)(F)F)C(C)C (racemic) [1-321],5,5,5,5,5,1
CC(C)C(c1cncnc1C(F)(F)F)N(C)C(=O)C(C)(C)c1ccc(Cl)cc1 (racemic) [1-329],5,5,5,5,5,1
CC(C)C(c1cncnc1C(F)(F)F)N(C)C(=O)Cc1cc(F)c(F)c(F)c1 (racemic) [1-418],5,5,5,5,5,1
CCN(C(=O)N(C)C(c1cncnc1C(F)(F)F)C(C)C)c1ccccc1 (racemic) [1-425],5,5,5,5,5,1
CCC(c1cncnc1C(C)C)N(C)C(=O)Cc1ccc(C)cc1 (racemic) [1-439],5,5,5,5,5,1
Cc1ccc(CC(=O)N(C)C(c2ccsc2)c2cncnc2C(F)(F)F)cc1 (racemic) [1-443],5,5,5,5,5,1
CC(C)C(c1cncnc1C(F)(F)F)N(C)C(=O)Cc1cc(F)cc(F)c1F (racemic) [1-444],5,5,5,5,5,1
CCCc1ncncc1C(C(C)C)N(C)C(=O)Cc1ccc(C)cc1 (racemic) [1-448],5,5,5,5,5,1
CON=CC(c1cncnc1C(C)C)N(C)C(=O)Cc1ccc(C)cc1 (racemic) [1-465],5,5,5,5,5,0
Cc1ccc(CC(=O)N(CC#N)C(c2cncnc2C(F)(F)F)C(C)C)cc1 (racemic) [1-483],5,5,5,5,5,1
COc1ccc(C(c2cncnc2C(F)(F)F)N(C)C(=O)Cc2ccc(F)cc2)cc1 (racemic) [1-485],5,5,5,5,5,1
CCCc1ncncc1C(CCC)N(C)C(=O)Cc1ccc(C)cc1 (racemic) [1-495],5,5,5,5,5,0
CON=Cc1ncncc1C(C(C)C)N(C)C(=O)Cc1ccc(Cl)cc1 (racemic) [1-498],5,5,5,5,5,0
COC(C)(OC)C(c1cncnc1C(C)C)N(C)C(=O)Cc1ccc(Cl)cc1 (racemic) [1-511],4,5,5,5,5,0
C=CCN(C(=O)Cc1ccc(Cl)cc1)C(c1cncnc1C(F)(F)F)C(C)C (racemic) [1-520],5,5,5,5,5,1
C=CCN(C(=O)Cc1ccc(C)cc1)C(c1cncnc1C(F)(F)F)C(C)C (racemic) [1-521],5,5,5,5,5,1
C#CCN(C(=O)N(C)C(c1cncnc1C(F)(F)F)C(C)C)c1ccc(F)cc1 (racemic) [1-533],5,5,5,5,5,1
CN(C(=O)Cc1ccc(Cl)cc1)C(c1ccccc1F)c1cncnc1C(F)(F)F (racemic) [1-548],5,5,5,5,5,1
Cc1ccc(CC(=O)N(C)C(c2ccccc2F)c2cncnc2C(F)(F)F)cc1 (racemic) [1-549],5,5,5,5,5,0
Cc1ccccc1C(c1cncnc1C(F)(F)F)N(C)C(=O)Cc1ccc(F)cc1 (racemic) [1-551],5,5,5,5,5,0
Cc1ccc(CC(=O)N(C)C(c2ccccc2C)c2cncnc2C(F)(F)F)cc1 (racemic) [1-553],5,5,5,5,5,1

# Source: patent US6806230B1, “Pyrimidine derivatives and herbicides containing them” (Kumiai Chemical Industry Co., Ltd., priority 1999, dated 2004)
